Test results: patent publication US12240827B2, “Serotonin 5-HT2B inhibitory compounds” (Zoetis Services LLC, priority 2019, dated 2025)
pIC50: −log10 of the molar value. Each block holds one compound with its values, some of them ahead of it.

Assays:
[1] = test system: dogs with Stage B2 MMVD; settings: cited from earlier work
[2] = target: T1, hERG (Homo sapiens, UniProt Q12809); assay: hERG in-vitro assay, IonWorks Barracuda population patch clamp; assay type: cell-based; settings: hERG/HEK293 cells; hERG current block, 5 minutes exposure
T1 construct: stably transfected with full length hERG cDNA; expressed in transfected cells; host or cells: HEK293
Procedure: Stock solutions of compounds of the invention and positive control (cisapride; 0.001-3 μM) were prepared in DMSO. Stock solutions were diluted in a HEPES-buffered physiological saline solution. Test and control solutions contained 0.3% DMSO. Human hERG/HEK293 renal epithelial cells stably transfected with full length hERG cDNA were cultured in Dulbecco's Modified Eagle Medium/Nutrient Mixture F-12 (D-MEM/F-12) supplemented with 10% fetal bovine serum, 100 U/mL penicillin G sodium, 100 μg/mL streptomycin sulfate and 500 μg/mL G418. Before testing, cells in culture dishes were rinsed with Hank's Balanced Salt Solution (HBSS) and detached with accutase. Immediately before use in the IonWorks Barracuda™ system, the cells were washed with buffered physiological saline solution (HB-PS) buffer to remove the accutase and re-suspended in 5 mL of HB-PS. The test article effects were evaluated using IonWorks Barracuda™ systems (Molecular Devices Corporation, Union City, CA). HEPES-buffered intracellular solution for whole cell recordings was loaded into the intracellular compartment of the Population Patch Clamp™ (PPC) planar electrode.
Extracellular buffer (HB-PS) was loaded into PPC planar electrode plate wells (11 μL/well). The cell suspension was pipetted into the wells of the PPC planar electrode (9 μL/well). After establishment of a whole-cell configuration (the perforated patch), membrane currents were recorded using patch clamp amplifier in the IonWorks Barracuda™ system. The current recordings were performed one (1) time before test article application to the cells (baseline) and one (1) time after application of the test article. Test article concentrations were applied to naïve cells. Each application consisted of addition of 20 μL of 2× concentrated test article solution to the total 40 μL of final volume of the extracellular well of the PPC plate. Duration of exposure to each compound concentration was five (5) minutes. hERG current was elicited using a pulse pattern with fixed amplitudes (the first conditioning pre-pulse to 10 mV for 60 second, the second conditioning pre-pulse: −90 mV for 20 ms; the test pulse: +40 mV for 100 ms) from a holding potential of 0 mV (‘zero holding’ procedure). hERG current was measured as a difference between the peak current at 1 ms and at the end of test step to +40 mV. Data acquisition and analyses were performed using the IonWorks Barracuda™ system operation software (version 2.0.2). The decrease in current amplitude after test article application was used to calculate the percent block relative to control. Results for each test article concentration (n≥1) were averaged; the mean and standard deviation values were calculated and used to generate dose-response curves.

[3] = target: T2, canine 5-HT2B receptor (Canis lupus familiaris, UniProt Q50DZ8); assay: Canine 5-HT2B (c5-HT2B) in-vitro assay, FLIPR calcium response; assay type: cell-based; settings: CHO-K1 cells stably expressing canine 5-HT2B receptor; inhibition of EC80 serotonin calcium response
T2 construct: expressed in transfected cells; host or cells: CHO-K1
Procedure: CHO-K1 cells stably expressing the canine 5-HT2B receptor were seeded at 20,000 cells per well in 20 μl culture media (DMEM with GlutaMAX™ high glucose+5% dialyzed FBS+10 mM HEPES+1×MEM Non-Essential Amino Acids of a 384-well black plate with clear bottom for at least 18 hours at 37° C. and 5% CO2. The cell plate was loaded with 20 μl/well of the FLIPR® Calcium 5 Assay kit prepared in HBSS containing calcium and magnesium supplemented with 20 mM HEPES and 5 mM Probenecid at pH 7.4 and incubated at 37° C. and 5% CO2 for 30 minutes and then an additional 30 minutes at room temperature. The intracellular calcium response was measured using the FLIPR Tetra® instrument measuring the kinetic response of the Calcium 5 dye at an excitation wavelength of 470-495 nm and emission wavelength of 515-575 nm at room temperature. The cells were initially challenged with a 5× concentration of the antagonist (10 μl/well) after an initial baseline recording and the calcium response was recorded for almost 2 minutes. After the completion of the initial antagonist challenge, the cell plate was incubated at room temperature in the FLIPR Tetra® instrument for 10 minutes. Finally, a second kinetic assay was performed after the 10 minute incubation at room temperature to measure the inhibitory response of the EC80 concentration of serotonin (15 μl/well) after an initial baseline recording. The IC50 concentration was determined for each antagonist tested.

[4] = test system: c5-HT2B; settings: literature value; cited from earlier work

T1 sequence (Q12809 whole entry): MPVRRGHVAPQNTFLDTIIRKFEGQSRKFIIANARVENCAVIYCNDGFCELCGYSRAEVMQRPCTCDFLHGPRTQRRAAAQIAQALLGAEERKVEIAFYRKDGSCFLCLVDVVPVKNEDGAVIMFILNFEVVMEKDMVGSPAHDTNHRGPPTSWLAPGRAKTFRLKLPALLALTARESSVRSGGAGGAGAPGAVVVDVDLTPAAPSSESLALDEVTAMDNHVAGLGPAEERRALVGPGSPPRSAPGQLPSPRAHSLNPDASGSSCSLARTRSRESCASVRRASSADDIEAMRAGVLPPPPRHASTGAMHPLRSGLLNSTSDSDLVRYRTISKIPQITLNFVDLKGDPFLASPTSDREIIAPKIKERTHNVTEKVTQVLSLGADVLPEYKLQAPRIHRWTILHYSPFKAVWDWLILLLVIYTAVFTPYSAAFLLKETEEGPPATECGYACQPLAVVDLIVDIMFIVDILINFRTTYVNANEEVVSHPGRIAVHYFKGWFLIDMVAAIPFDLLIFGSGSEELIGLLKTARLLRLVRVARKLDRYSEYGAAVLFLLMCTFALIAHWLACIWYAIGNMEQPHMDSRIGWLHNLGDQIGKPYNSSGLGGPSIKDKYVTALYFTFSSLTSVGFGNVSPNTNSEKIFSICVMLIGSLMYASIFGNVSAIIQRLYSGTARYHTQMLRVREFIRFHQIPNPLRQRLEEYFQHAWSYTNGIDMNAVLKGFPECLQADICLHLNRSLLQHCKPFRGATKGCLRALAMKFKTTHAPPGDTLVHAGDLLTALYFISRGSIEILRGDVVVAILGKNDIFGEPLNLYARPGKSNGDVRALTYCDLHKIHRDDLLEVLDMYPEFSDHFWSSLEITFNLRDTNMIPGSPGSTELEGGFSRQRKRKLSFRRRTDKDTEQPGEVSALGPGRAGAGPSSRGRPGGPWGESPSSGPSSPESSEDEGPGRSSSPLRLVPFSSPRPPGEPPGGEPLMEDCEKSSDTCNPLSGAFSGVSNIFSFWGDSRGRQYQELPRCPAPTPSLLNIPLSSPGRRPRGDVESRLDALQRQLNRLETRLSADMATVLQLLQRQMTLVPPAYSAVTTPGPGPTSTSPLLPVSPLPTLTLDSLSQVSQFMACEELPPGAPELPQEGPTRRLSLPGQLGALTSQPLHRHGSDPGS
T2 sequence (Q50DZ8 1-434): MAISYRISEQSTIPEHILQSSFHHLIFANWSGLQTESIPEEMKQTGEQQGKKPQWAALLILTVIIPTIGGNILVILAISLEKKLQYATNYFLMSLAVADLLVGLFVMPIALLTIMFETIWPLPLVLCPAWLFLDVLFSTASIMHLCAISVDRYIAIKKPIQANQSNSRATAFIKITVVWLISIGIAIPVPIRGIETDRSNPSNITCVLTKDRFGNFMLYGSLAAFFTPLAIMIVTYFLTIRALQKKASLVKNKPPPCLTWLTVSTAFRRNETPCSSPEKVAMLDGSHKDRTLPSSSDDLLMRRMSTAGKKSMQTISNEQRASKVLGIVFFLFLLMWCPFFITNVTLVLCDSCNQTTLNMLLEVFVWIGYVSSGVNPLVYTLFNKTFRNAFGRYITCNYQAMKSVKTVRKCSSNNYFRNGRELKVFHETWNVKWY

SMILES: COc1ccc(-c2nc3ccc(C4=NNC(=O)CC4C)cc3[nH]2)cc1 (centres unmarked) [pimobendan]
time longer to develop CHF or die from MMVD than dogs receiving placebo ([1]; pimobendan 0.2 or 0.3 mg/kg twice a day): 462 days
delay in prolonging preclinical stage ([1]; versus placebo): 60%

SMILES: Cc1cnc(C2CCN(C(=O)c3ccc(-c4c[nH]c5ccccc45)cc3)CC2)[nH]1 [Example 5, (4-(1H-indol-3-yl)phenyl)(4-(5-methyl-1H-imidazol-2-yl)piperidin-1-yl)methanone]
pIC50 [2]: 5.18
pIC50 [3]: 9.48

SMILES: O=C(c1ccc(-c2ccc(C(F)(F)F)cc2)cc1)N1CCC(Nc2ncc[nH]2)CC1 [Example 7, (4-((1H-imidazol-2-yl)amino)piperidin-1-yl)(4′-(trifluoromethyl)-[1,1′-biphenyl]-4-yl)methanone]
pIC50 [2]: 5.60
pIC50 [3]: 7.52

SMILES: O=C(c1ccc(-c2ccc(OC(F)(F)F)cc2)cc1)N1CCC(c2nc3ccccc3[nH]2)CC1 [CA-2, (4-(1H-benzo[d]imidazol-2-yl)piperidin-1-yl)(4′-(trifluoromethoxy)-[1,1′-biphenyl]-4-yl)methanone]
pIC50 [4]: 7.02

SMILES: O=C(c1ccc(-c2cccc(C(F)(F)F)c2)cc1)N1CCC(c2ncc[nH]2)CC1 [Example 19, (4-(1H-imidazol-2-yl)piperidin-1-yl)(3′-(trifluoromethyl)-[1,1′-biphenyl]-4-yl)methanone]
pIC50 [2]: 5.83
pIC50 [3]: 9.05

SMILES: O=C(c1ccc2c(ccn2-c2ccccc2)c1)N1CCC(c2ncc[nH]2)CC1 [Example 21, (4-(1H-imidazol-2-yl)piperidin-1-yl)(1-phenyl-1H-indol-5-yl)methanone]
pIC50 [2]: 5.37
pIC50 [3]: 8.51

SMILES: O=C(c1ccc(-c2ccccc2)nc1)N1CCC(c2ncc[nH]2)CC1 [Example 11, (4-(1H-imidazol-2-yl)piperidin-1-yl)(6-phenylpyridin-3-yl)methanone]
pIC50 [2]: 5.48
pIC50 [3]: 8.35

SMILES: O=C(c1ccc(-c2ccc(C(F)(F)F)cc2)cc1)N1CCC(Cc2ncc[nH]2)CC1 [Example 12, (4-((1H-imidazol-2-yl)methyl)piperidin-1-yl)(4′-(trifluoromethyl)-[1,1′-biphenyl]-4-yl)methanone]
pIC50 [2]: 5.32
pIC50 [3]: 7.19

SMILES: Cc1cnc(C2CCN(C(=O)c3ccc(-c4n[nH]c5ccccc45)cc3)CC2)[nH]1 [Example 6, (4-(1H-indazol-3-yl)phenyl)(4-(5-methyl-1H-imidazol-2-yl)piperidin-1-yl)methanone]
pIC50 [2]: 4.45
pIC50 [3]: 9.19

Now from value to compound, other results behind:

pIC50 [3]: 9.48
SMILES: O=C(c1ccc(-c2n[nH]c3ccccc23)cc1)N1CCC(c2ncc[nH]2)CC1 [Example 24, (4-(1H-imidazol-2-yl)piperidin-1-yl)(4-(1H-indazol-3-yl)phenyl)methanone]
pIC50 [2]: 4.47

pIC50 [3]: 8.92
SMILES: O=C(c1ccc2c(-c3cccc4[nH]ccc34)c[nH]c2c1)N1CCC(c2ncc[nH]2)CC1 [Example 28, (4-(1H-imidazol-2-yl)piperidin-1-yl)(1H,1′H-[3,4′-biindol]-6-yl)methanone]
pIC50 [2]: < 4.52

pIC50 [3]: 8.85
SMILES: O=C(c1ccc2c(-c3c[nH]c4ccccc34)c[nH]c2c1)N1CCC(c2ncc[nH]2)CC1 [Example 29, [4-(1H-imidazol-2-yl)-1-piperidyl]-[3-(1H-indol-3-yl)-1H-indol-6-yl]methanone]
pIC50 [2]: 4.57

pIC50 [3]: 10.70
SMILES: O=C(c1ccc(-c2c[nH]c3ccccc23)cc1)N1CCC(c2ncc[nH]2)CC1 [Example 23, (4-(1H-imidazol-2-yl)piperidin-1-yl)(4-(1H-indol-3-yl)phenyl)methanone]
pIC50 [2]: 4.61

pIC50 [3]: 7.69
SMILES: O=C(c1ccc(-c2ccc(C(F)(F)F)s2)cc1)N1CCC(c2ncc[nH]2)CC1 [Example 22, (4-(1H-imidazol-2-yl)piperidin-1-yl)(4-(5-(trifluoromethyl)thiophen-2-yl)phenyl)methanone]
pIC50 [2]: 5.55

pIC50 [3]: 9.34
SMILES: O=C(c1ccc(-c2ccc(C(F)F)cc2)cc1)N1CCC(Cc2ncc[nH]2)CC1 [Example 25, (4-((1H-imidazol-2-yl)methyl)piperidin-1-yl)(4′-(difluoromethyl)-[1,1′-biphenyl]-4-yl)methanone]
pIC50 [2]: 5.47
